Source: patent publication US9248148B2, “Mono (iron hydroxypyrone) and combination (iron hydroxypyrone and GI inflammation inhibiting agents) compositions for anaemia or H. pylori infections” (Iron Therapeutics Holdings AG, priority 2008, dated 2016)

Tested on: anaemia due to blood loss
Experiment: Patient 1: anaemia after surgical blood loss, treated while continuing Gaviscon (acid reducer)
Text: The patient had been taking Gaviscon™ which contains potassium bicarbonate as an acid reducer to reduce acid reflux. […] They continued to take Gaviscon™ but was also given ferrous sulphate tablets for their anaemia.

For `O=S(=O)([O-])[O-].[Fe+2]` [ferrous sulphate], the correction of anaemia (patient 1, continuing Gaviscon (potassium bicarbonate)) was “failed to correct their anaemia” and the “tolerability / side effects” value (patient 1, continuing Gaviscon, maltol and ferrous gluconate at 45 mg/day) was “serious side effects of gastric intolerance and severe headaches”.
